Reference: patent publication US4500544A, “Ascochlorin derivatives, and pharmaceutical composition containing the same” (Chugai Seiyaku Kabushiki Kaisha, priority 1981, dated 1985)

How the values were obtained:
[1] = background; cited from earlier work
[2] = tested on: circulatory system of mammals; details: background; cited from earlier work
[3] = background; cited from earlier work; remark: listed apart in the source
[4] = systemic or oral administration; cited from earlier work
[5] = plasma glucose and cholesterol in normal mice fed the compounds (Example 19); type: in vivo, ddY male mice; details: 0.1% in diet, one week, n=10
Method: Five-week-old ddY male mice (n=10) were given for one week a diet (CE-2 from Nippon Crea Co., Ltd.) containing 0.1% of the sample compounds of the present invention indicated in Table 1. Blood was then withdrawn from the heart and the glucose and cholesterol levels in plasma were measured.

[6] = tested on: Hereditary obese diabetic mice C 57BL/Ksj (db^+ /db^+); test: hereditary obese diabetic mice, diet with 0.1% compound (Example 20); type: in vivo, mouse
Method: The amounts of the diet taken drinking water, urine volume and urine glucose excreted were measured daily. The results are indicated in Table 2 in terms of mean value±standard error.

[7] = tested on: Ehrlich ascites tumor; test: life span of mice with Ehrlich ascites tumor (Example 22); type: in vivo, ddY male mice; details: 2 mg i.p. once a day for 7 days
Method: 10^6 Cells of Ehrlich ascites tumor were transplanted in five-week-old ddY male mice and from the 24th hour onward, they were injected intraperitoneally the compounds indicated in Table 4 of the present invention once a day for 7 consecutive days. Each injection contained 2 mg of the test compounds. The efficacy of the compounds is indicated in Table 4 in terms of their life span.

[8] = tested on: L-1210 leukemia; test: prevention of L-1210 leukemia by pretreatment one week before transplantation (Example 23); type: in vivo, BDF1 female mice; details: 2 mg i.p. one week before 10^2 cells
Method: Four-week-old BDF1 female mice were injected intraperitoneally with suspensions of 2 mg of 4-O-hydroxycarbonylmethyl ester of ascochlorin in 1% tragacanth gum. A control group was injected only with 1% tragacanth gum. One week later, 10^2 cells of L-1210 leukemia were transplanted in the mice.

[9] = tested on: adipocytes of streptozotocin-diabetic rats; test: adipocytes from orally treated streptozotocin-diabetic rats; type: in vivo; details: oral once daily for 2 weeks
Method: The mechanism of action of the compounds of the present invention was evaluated using adipocytes derived from diabetic animals which orally received the compounds for a given period.

[10] = tested on: adipocytes of hereditary obese diabetic mouse, strain C 57BL/KsJ (db^+ /db^+); test: adipocytes from orally treated hereditary obese diabetic mice; type: in vivo; details: oral, 1 week
Description: The hereditary obese diabetic mouse, strain C 57BL/KsJ (db^+ /db^+), is an excellent model of human type II diabetes mellitus.

[11] = tested on: hepatic lipogenesis in streptozotocin-diabetic mice; test: hepatic lipogenesis in streptozotocin-diabetic mice; type: in vivo; details: oral, a week; untreated diabetic controls one half of normal
Description: Potentiation of insulin action by the compounds of the present invention is corroborated by restoration of hepatic lipogenesis in streptozotocin-diabetic mice. Streptozotocin diabetic mice greatly deteriolate hepatic lipogenesis due to insulin deficiency.

[12] = tested on: Hereditary obese diabetic mice C 57BL/Ksj (db^+ /db^+); test: hereditary obese diabetic mice, diet with 0.05% compound, intake and urine (Example 24); type: in vivo, mouse
Method: Hereditary obese diabetic mice C 57BL/Ksj (db^+ /db^+), 12 weeks old, were fed commercial pellet diet (CE-2 from Nippon Crea Co., Ltd.) for a week and they were treated with CE-2 pellet containing 0.05% of 4-O-nicotinoylascochlorin for a week. The daily amounts of the diet intake, drinking water, urine volume and urine glucose excreted were measured before and during the treatment.

[13] = serum lipid and glucose in normal mice fed the compounds (Example 25); type: in vivo, ddY male mice
Method: Five-week-old ddY male mice were given for one week a diet (CE-2 from Nippon Crea Co., Ltd.) containing 0.05% of the compounds of the present invention indicated in Table 7. On the 7th day, the mice were sacrificed and the levels of lipid and glucose in their serum were measured.

[14] = tested on: streptozotocin diabetic ddY mice; test: streptozotocin-diabetic mice, plasma glucose and lipid (Example 26); type: in vivo, ddY male mice
Method: Five-week-old ddY male mice […] were injected intraperitoneally 150 mg/kg of streptozotocin, and after 24 hours onward, they were given for one week a diet (CE-2 from Nippon Crea Co., Ltd.) containing 0.05% of 4-O-nicotinoyl ascochlorin. A control group was given only CE-2. On the 7th day, the animals were sacrificed and the levels of glucose and lipid in their plasma were measured.

[15] = tested on: Hereditary obese diabetic mice C57BL/Ksj (db^+ /db^+); test: hereditary obese diabetic mice, plasma glucose and lipid (Example 27); type: in vivo, mouse
Method: Hereditary obese diabetic mice C57BL/Ksj (db^+ /db^+) were given for one week a diet (CE-2 from Nippon Crea Co., Ltd.) containing 0.05% of 4-O-nicotinoyl ascochlorin. A control group of the same age was given only CE-2. One week later, the animals were sacrificed and the levels of plasma glucose and lipid were measured.

[16] = vs one week prior to administration

For `CC(/C=C/[C@@]1(C)[C@H](C)CCC(=O)[C@@H]1C)=C\Cc1c(O)c(Cl)c(C)c(C=O)c1O` [Ascochlorin], the “anti-viral and anti-tumor effects” value [1] is listed as “high anti-viral and anti-tumor effects” and the “toxicity to the circulatory system” value [2] is listed as “highly toxic to the circulatory system of mammals”.

For `COc1c(Cl)c(C)c(C=O)c(O)c1C/C=C(C)/C=C/C1(C)C(C)CCC(=O)C1C` (centres unmarked), the water solubility [3] is listed as “low in water solubility” and the level in blood [4] is listed as “not easily increased even if it is administered systemically or orally”.

With `CC(/C=C/C1(C)C(C)CCC(=O)C1C)=C\Cc1c(O)c(C=O)c(C)c(Cl)c1OCC(=O)O` (centres unmarked) [Example 4, 4-O-carboxymethyl ascochlorin] the “total cholesterol in plasma” value ([5]; control 135.9 ± 4.8) was 107.9 ± 4.5 mg/dL, the plasma glucose ([5]; control 271.6 ± 0.4) was 217.6 ± 12.2 mg/dL and the urine volume ([6]; 0.1% in diet, one week administration, prior 5.95 ± 0.20, n=10) was 2.07 ± 0.23 ml/mouse/day. For the same molecule, the diet intake ([6]; 0.1% in diet, one week administration, prior 6.35 ± 0.13, n=10) was 6.37 ± 0.28 g/mouse/day, the drinking water ([6]; 0.1% in diet, one week administration, prior 14.7 ± 0.3, n=10) was 10.4 ± 0.3 ml/mouse/day and the urine glucose concentration ([6]; 0.1% in diet, one week administration, prior 97.4 ± 3.4, n=10) was 52.9 ± 5.52 mg/mL. The urine glucose ([6]; 0.1% in diet, one week administration, prior 579.5 ± 21.1, n=10) was 106.8 ± 19.5 mg/mouse/day, the “drinking water, change” value [6, 16] was -29.3% and the “urine glucose concentration, change” value [6, 16] was -45.7%. The “urine glucose, change” value [6, 16] was -81.5%, the “urine volume, change” value [6, 16] was -65.2% and the Days survived ([7]; n=8, control 15.5 ± 2.12) was over 25.3 ± 4.65 days. For the same molecule, the “T/0 (%)” value ([7]; control 100) was 163%, the “Survived 50 days or more” value ([8]; control 0, P < 0.01) was 7 and the Died ([8]; control 20 died) was 13. The “2-deoxyglucose uptake, and conversion of glucose to carbon dioxide and lipids in adipocytes” value [9] was “greatly increased”, the “^125 I-insulin binding to adipocytes” value ([9]; vs normal and diabetic control) was “increased ^125 I-insulin binding to adipocytes above normal and diabetic control levels” and the “2-deoxyglucose uptake, and conversion of glucose to carbon dioxide and lipid” value [10] was “increased”. For the same molecule, the “increment in ^125 I-insulin binding to adipocytes” value ([10]; above age-matched untreated diabetic controls) was 1.5-3.0 fold and the “incorporation of acetate into hepatic total fatty acid and triglyceride” value [11] was “restored to normal control levels”.

In the case of `CC(/C=C/C1(C)C(C)CCC(=O)C1C)=C\Cc1c(O)c(C=O)c(C)c(Cl)c1OC(=O)c1cccnc1` (centres unmarked) [Example 11, 4-O-nicotinoyl ascochlorin], the “polydipsia, polyuria and urine glucose excretion (in words)” value ([12]; 0.05% in diet, one week) is reported as “improved polydipsis and polyurea and inhibited excretion of urine gluclose”, the urine volume ([12]; 0.05% in diet, one week, n=5, control period 8.60 ± 0.35) is reported as 5.20 ± 0.36 ml/mouse/day and the drinking water ([12]; 0.05% in diet, one week, n=5, control period 14.55 ± 0.33) is reported as 11.16 ± 0.52 ml/mouse/day. For the same molecule, the urine glucose concentration ([12]; 0.05% in diet, one week, n=5, control period 130.6 ± 5.7) was 106.3 ± 2.9 mg/mL, the urine glucose ([12]; 0.05% in diet, one week, n=5, control period 1129 ± 96) was 554 ± 43 mg/mouse/day and the diet intake ([12]; 0.05% in diet, treatment period one week, n=5, control period 4.85 ± 0.06, NS) was 4.26 ± 0.39 g/mouse/day. The “drinking water, change” value ([12]; vs control period) was -23.30%, the “urine glucose concentration, change” value ([12]; vs control period) was -18.6% and the “urine glucose, change” value ([12]; vs control period) was -50.9%. The “urine volume, change” value ([12]; vs control period) was -39.5%, the “lipid level in serum (in words)” value ([13]; 0.05% in diet, one week) was “could also reduce the lipid level in serum” and the “free fatty acid in serum” value ([13]; 0.05% in diet, one week, n=8, control 25.3 ± 1.62) was 21.2 ± 0.62 mg/dL. The “neutral fat in serum” value ([13]; 0.05% in diet, one week, n=8, control 134.7 ± 8.6) was 102.0 ± 10.5 mg/dL, the “total cholesterol in serum” value ([13]; 0.05% in diet, one week, n=8, control 135.9 ± 4.8) was 106.7 ± 5.5 mg/dL and the serum glucose ([13]; 0.05% in diet, one week, n=8, control 293.0 ± 13.3) was 228.0 ± 16.8 mg/dL. The “free fatty acid in serum, change” value ([13]; vs control) was -16.3%, the “neutral fat in serum, change” value ([13]; vs control) was -24.3% and the “serum glucose, change” value ([13]; vs control) was -22.2%. The “total cholesterol in serum, change” value ([13]; vs control) was -21.5%, the “blood glucose and plasma triglyceride (in words)” value ([14]; 0.05% in diet, one week) was “could inhibit significantly the increase in the levels of blood glucose and triglyceride in plasma” and the “free aliphatic acid in plasma” value ([14]; 0.05% in diet, one week, control 22.4 ± 1.4) was 20.5 ± 1.2 mg/dL. For the same molecule, the plasma glucose ([14]; 0.05% in diet, one week, control 453.6 ± 38.0) was 351.3 ± 23.0 mg/dL, the “free aliphatic acid in plasma, change” value ([14]; vs control) was -8% and the “plasma glucose, change” value ([14]; vs control) was -23%. The “plasma lipid and glucose levels (in words)” value ([15]; 0.05% in diet, one week) was “could reduce significantly the high plasma lipid and glucose levels”, the “plasma free fatty acid” value ([15]; 0.05% in diet, one week, n=7, control 27.7 ± 1.8) was 26.1 ± 1.4 mg/dL and the plasma triglyceride ([15]; 0.05% in diet, one week, n=7, control 170.7 ± 16.3) was 115.5 ± 14.9 mg/dL. For the same molecule, the “immunoreactive insulin in plasma” value ([15]; 0.05% in diet, one week, n=7, control 236.6 ± 91.0) was 257.3 ± 91.3 μU/ml, the plasma glucose ([15]; 0.05% in diet, one week, n=7, control 453.6 ± 38.0) was 351.3 ± 23.0 mg/dL and the “plasma glucose, change” value ([15]; vs control) was -23%. The “plasma triglyceride, change” value ([15]; vs control) was -32.3% and the “incorporation of acetate into hepatic total fatty acid and triglyceride” value [11] was “restored to normal control levels”.
